The record followed here is PubChem BioAssay (NCI).

Test systems include U251 CNS; ACHN renal; BT-549 breast; HS 578T breast; SF-295 CNS; SR leukemia; UACC-62 melanoma; SNB-75 CNS; MCF7 breast; IGROV1 ovarian.
Assay in all cases: NCI-60 cell line screen, 48 h

Values joined by “and” are separate entries in the source; they are usually repeats but may differ in a detail not shown here. Equal values may be shown once.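 48-hour exposure; five concentrations; linearly interpolated endpoints. GI50 is the concentration that inhibits growth by half. TGI: total growth inhibition.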 Where only a bound is given, the exact number is not on record here.

As for `C/C(=C/CCC(C)[C@@H]1CC[C@]2(C)C3=C(CC[C@@]12C)[C@@]1(C)CCC(=O)C(C)(C)[C@@H]1CC3)C(=O)O` (stereo partly drawn), the GI50 is 817 nM in the experiment on U251 CNS; 1290 nM in the experiment with ACHN renal; 1170 nM with BT-549 breast; 1450 nM in the experiment with HS 578T breast; 506 nM with SF-295 CNS; 1140 nM with SR leukemia. Further, the GI50 with UACC-62 melanoma is 469 nM; in the experiment on SNB-75 CNS, 1690 nM; in the experiment with MCF7 breast, 1020 nM; in the experiment with IGROV1 ovarian, 1190 nM. Besides, the TGI in the experiment on U251 CNS was determined as 2290 nM; in the experiment with ACHN renal it was 2730 nM; with BT-549 breast, 2450 nM; with HS 578T breast, 3400 nM; in the experiment with SF-295 CNS, 2020 nM; in the experiment on SR leukemia it was 2930 nM. In addition, the TGI in the experiment on UACC-62 melanoma came to 1760 nM; in the experiment on SNB-75 CNS it was 3220 nM; in the experiment with MCF7 breast it was 2870 nM; with IGROV1 ovarian, 2600 nM.
In the case of `C#COc1cccc(Nc2ncnc3cc(NC(=O)[C@@H](C)Cl)ccc23)c1`, the GI50 with U251 CNS was 7290 nM; in the experiment on ACHN renal it was 18900 nM; with BT-549 breast, 6890 nM; in the experiment on HS 578T breast it was 7880 nM; with SF-295 CNS, 8220 nM; in the experiment on SR leukemia it was 3080 nM. The GI50 with UACC-62 melanoma is 5480 nM; in the experiment on SNB-75 CNS, 8030 nM; in the experiment with MCF7 breast it was 18800 nM; in the experiment with IGROV1 ovarian, 5290 nM. For the same compound, the TGI with U251 CNS is above 62500 nM; in the experiment on ACHN renal, above 62500 nM; with BT-549 breast it was above 62500 nM; in the experiment with HS 578T breast it was above 62500 nM; in the experiment with SF-295 CNS, 61200 nM; with SR leukemia, above 62500 nM. For the same compound, the TGI was above 62500 nM in the experiment on UACC-62 melanoma, 44800 nM with SNB-75 CNS, above 62500 nM in the experiment with MCF7 breast and above 62500 nM in the experiment with IGROV1 ovarian.
As for `O=[N+]([O-])/C=C/c1ccc2ccccc2c1`, the TGI in the experiment with U251 CNS was 3080 nM; in the experiment with ACHN renal it was 4170 nM; in the experiment on BT-549 breast, 7800 nM; with HS 578T breast, above 61800 nM; in the experiment on SF-295 CNS, 19400 nM; in the experiment with SR leukemia, above 100000 nM. Also, the TGI was 32800 nM with UACC-62 melanoma, 5170 nM in the experiment with SNB-75 CNS, above 100000 nM in the experiment on MCF7 breast and above 21800 nM in the experiment with IGROV1 ovarian.
Take `CCN(CC)CCNc1n[n+]([O-])c2cc([N+](=O)[O-])ccc2[n+]1[O-]`: the TGI in the experiment on U251 CNS is 3100 nM and 2730 nM and 2780 nM; with ACHN renal, 3930 nM and 2060 nM and 1920 nM; with BT-549 breast, 8850 nM and 8270 nM and 3640 nM; with HS 578T breast, 54200 nM; with SF-295 CNS, 1950 nM and 3080 nM and 2640 nM; in the experiment on SR leukemia, 1750 nM and 958 nM and 754 nM. For the same compound, the TGI was 2110 nM and 1560 nM and 1500 nM with UACC-62 melanoma; 14500 nM and 14300 nM and 10000 nM in the experiment on SNB-75 CNS; 1910 nM and 2170 nM and 1990 nM in the experiment with MCF7 breast; 1830 nM and 999 nM and 897 nM in the experiment with IGROV1 ovarian. In addition, the GI50 in the experiment with ACHN renal was 401 nM and 212 nM and 187 nM; with SF-295 CNS, 253 nM and 447 nM and 186 nM; in the experiment with SR leukemia it was 398 nM and 188 nM and 123 nM; in the experiment with UACC-62 melanoma, 532 nM and 309 nM and 244 nM; in the experiment with SNB-75 CNS it was 2010 nM and 1160 nM and 905 nM; in the experiment on MCF7 breast, 274 nM and 110 nM and 136 nM.
`Nc1c(C(=O)Nc2ccccc2)sc2nc3c(cc12)C(=O)CCC3`: the GI50 with U251 CNS is 486 nM; in the experiment on ACHN renal it was 948 nM; in the experiment with BT-549 breast, 3170 nM; with HS 578T breast it was 524 nM; in the experiment on SF-295 CNS, 435 nM; in the experiment with SR leukemia, 533 nM. For the same compound, the GI50 was 557 nM in the experiment on UACC-62 melanoma, 494 nM with SNB-75 CNS, 366 nM in the experiment with MCF7 breast and 1010 nM in the experiment on IGROV1 ovarian. In addition, the TGI in the experiment on U251 CNS was above 41900 nM; with ACHN renal it was above 100000 nM; with BT-549 breast it was above 100000 nM; in the experiment with HS 578T breast, above 72400 nM; with SF-295 CNS it was above 100000 nM; in the experiment on SR leukemia, above 100000 nM. Also, the TGI in the experiment on UACC-62 melanoma is above 100000 nM; in the experiment with SNB-75 CNS, above 88700 nM; in the experiment on MCF7 breast it was above 100000 nM; in the experiment with IGROV1 ovarian, above 100000 nM.
Consider `C/C(=N\NC(=S)N1CCC1)c1ccccn1`, for which the GI50 with U251 CNS was 7.25 nM; in the experiment with ACHN renal, 6.56 nM; in the experiment on SF-295 CNS, 28.5 nM; in the experiment with SR leukemia, 8.19 nM; in the experiment with IGROV1 ovarian, 7.98 nM. Besides, the TGI in the experiment on U251 CNS was above 82600 nM; with ACHN renal, 34600 nM; in the experiment with BT-549 breast, 73300 nM; with HS 578T breast, above 100000 nM; in the experiment with SF-295 CNS, 49200 nM; in the experiment on UACC-62 melanoma, 7360 nM. Moreover, the TGI in the experiment on SNB-75 CNS was above 29900 nM; in the experiment on MCF7 breast, 6.35 nM; in the experiment on IGROV1 ovarian, 22700 nM.
As to `N#CN1CC[C@H](C(=O)Nc2ncc(-c3ccccc3)s2)C1`, the GI50 with U251 CNS was 545 nM; with ACHN renal, 562 nM; in the experiment on BT-549 breast, 156 nM; with HS 578T breast, 811 nM; in the experiment with SF-295 CNS it was 1220 nM; with SR leukemia, 222 nM. In addition, the GI50 in the experiment on UACC-62 melanoma is 371 nM; with SNB-75 CNS, 374 nM; with MCF7 breast, 190 nM; with IGROV1 ovarian, 449 nM. The TGI was 5150 nM in the experiment with U251 CNS; 2490 nM in the experiment with ACHN renal; 821 nM in the experiment on BT-549 breast; 5050 nM in the experiment on HS 578T breast; 6440 nM with SF-295 CNS; 1290 nM with SR leukemia. Besides, the TGI with UACC-62 melanoma turned out to be 2180 nM; in the experiment with SNB-75 CNS, 2690 nM; with MCF7 breast, 1320 nM; with IGROV1 ovarian it was 5590 nM.
`CCOC(=O)c1cc(C(=O)c2ccc(OC)c(OC)c2)n2c1ccc1ccc3cccnc3c12`: the GI50 with U251 CNS was 3610 nM; in the experiment with ACHN renal it was 2400 nM; in the experiment with BT-549 breast it was 1940 nM; with HS 578T breast, 3040 nM; in the experiment with SR leukemia, 807 nM; in the experiment with UACC-62 melanoma it was 918 nM. Further, the GI50 was 2040 nM in the experiment on SNB-75 CNS, 2250 nM in the experiment on MCF7 breast and 2330 nM in the experiment on IGROV1 ovarian. Further, the TGI with U251 CNS is 26900 nM; in the experiment on ACHN renal, above 100000 nM; in the experiment on BT-549 breast, above 100000 nM; in the experiment on HS 578T breast, above 100000 nM; in the experiment on SR leukemia, above 100000 nM; with UACC-62 melanoma, above 100000 nM. Moreover, the TGI with SNB-75 CNS, in the experiment with MCF7 breast and with IGROV1 ovarian was above 100000 nM each time.
